# Data taken from PubChem BioAssay AID2060511 (Molecular Pharmacology Branch, DTP, NCI, 2025).
# Several values for one entry are separate records, joined by “and”; a condition that tells them apart may be missing. Equal entries are not always repeated.
# Test system: 422866-222-R5-J1-PDC spheroids with HUVEC/MSC, viability
# Assay: Anticancer human tumor 422866-222-R5-J1-PDC patient-derived pancreatic adenocarcinoma cell line growth inhibition [GQUAD]
# Settings: for viability, T/C: stronger effect = lower value
# Text: DNA G-quadruplex Stabilizer Agents in Combinations in Complex Spheroids
# A high-throughput screen of multi-cell type tumor spheroids was designed to identify active combinations of DNA G-quadruplex stabilizer agents and targeted small molecules. Complex spheroids include a stromal component modeled by human endothelial cells (HUVEC) and fibroblasts modeled by human mesenchymal stem cells (MSCs). The concentration ranges selected for each drug and investigational agent were based upon clinically achievable concentrations if the clinical Cmax of the agent was known.
# Compounds. The drugs and investigational agents: pidnarulex (CX-5461; NSC782164), APTO-253 (NSC789042), BRACO-19 (NSC847499), peposertib (NSC802822), ceralasertib (NSC780249), elimusertib (NSC800525), camonsertib (NSC841442), AZD-1390 (NSC803789), olaparib (NSC753686), talazoparib (NSC767125), ART-558 (NSC835418), sotorasib (NSC818433), MRTX-1133 (NSC836407), SN-38 (NSC673596), topotecan (NSC609699), etoposide (NSC141540), doxorubicin (NSC123127), gemcitabine (NSC613327), 5-fluorouracil (NSC19893), paclitaxel (NSC125973), vemurafenib (NSC761431), panobinostat (NSC761190), R-306465 (JNJ-16241199; NSC773264), adavosertib (NSC754352), TP-3654 (NSC805149), carboplatin (NSC241240), KSQ-4279 (NSC840948), and staurosporine (NSC755774) were obtained from the National Cancer Institute (NCI) Developmental Therapeutics Program Chemical Repository (34). The FDA-approved anticancer drug set is available from the NCI Developmental Therapeutics Program. […] The stock solutions were prepared in dimethyl sulfoxide (DMSO, Sigma-Aldrich, St. Louis, MO, cat. D2650) at 800-fold the tested concentration and stored at -70 degrees C prior to their use. All drugs and investigational agents were tested over a range starting from a high concentration at or near the clinical Cmax and decreasing in half-log increments. If the clinical Cmax for an agent had not been determined, the highest concentration tested was 10 microM.
# 2.3 Cell Culture. All cells were maintained in an incubator at 37 degrees C and 5% CO2 with 95% humidity. The PDC lines were cultured according to standard operating procedures established by the NCI PDMR. All PDCs were thawed and cultured in Matrigel-coated flasks prepared with a working solution of 1X Ham's F-12 nutrient mix, without supplementation (Invitrogen, cat. 11765054), 100 U/mL penicillin-streptomycin (Invitrogen, cat. 15140122), and 2.5% Matrigel (Corning Inc., cat. 354248) for the first three passages. The 857933-349-R-J2-PDC line was cultured in 6C/Colon 1B media, which includes advanced DMEM/F-12 (Thermo Fisher Scientific, cat. 12634028), 10 mM HEPES (Thermo Fisher Scientific, cat. 15630080), 1X GlutaMAX supplement (Thermo Fisher Scientific, cat. 35050061), 0.1 mg/mL primocin (InvivoGen, cat. ant-pm-2), 10% defined fetal bovine serum, heat inactivated (HyClone Laboratories Inc., cat. SH30070.03HI), 50% L-WRN conditioned media (ATCC, cat. CRL-3276), 1.25 mM N-Acetyl-L-cysteine (Sigma-Aldrich, cat. A9165), 10 mM nicotinamide (Sigma-Aldrich, cat. N0636), 1X B-27 supplement (Thermo Fisher Scientific, cat. 17504044), 1X N-2 supplement (Thermo Fisher Scientific, cat. 17502048), 10 microM Y-27632 dihydrochloride (Tocris Bioscience, cat. 1254), and 50 ng/mL human EGF recombinant protein (Thermo Fisher Scientific, cat. PHG0311). The 485176-168-R4-J1-PDC line was cultured in Panc media, which includes all 6C/Colon 1B media components plus 100 ng/mL human FGF-10 (Thermo Fisher Scientific, cat. 100-26), 500 nM SB-431542 (Selleckchem, cat. S1067), and gastrin (Tocris, cat. 3006).
# […]
# [1] = curve of first compound, second compound 0.0316 µM
# [2] = curve of first compound, second compound 0.1 µM
# [3] = curve of first compound, second compound 0.316 µM
# [4] = curve of first compound, second compound 1 µM
# [5] = curve of first compound, second compound 3.16 µM
# [6] = curve of first compound, second compound 10 µM
# [7] = second compound 0.0316 µM, first compound 0.0316 µM
# [8] = second compound 0.0316 µM, first compound 0.1 µM
# [9] = second compound 0.0316 µM, first compound 0.316 µM
# [10] = second compound 0.0316 µM, first compound 1 µM
# [11] = second compound 0.0316 µM, first compound 3.16 µM
# [12] = second compound 0.0316 µM, first compound 10 µM
# [13] = second compound 0.1 µM, first compound 0.0316 µM
# [14] = second compound 0.1 µM, first compound 0.1 µM
# [15] = second compound 0.1 µM, first compound 0.316 µM
# [16] = second compound 0.1 µM, first compound 1 µM
# [17] = second compound 0.1 µM, first compound 3.16 µM
# [18] = second compound 0.1 µM, first compound 10 µM
# [19] = second compound 0.316 µM, first compound 0.0316 µM
# [20] = second compound 0.316 µM, first compound 0.1 µM
# [21] = second compound 0.316 µM, first compound 0.316 µM
# [22] = second compound 0.316 µM, first compound 1 µM
# [23] = second compound 0.316 µM, first compound 3.16 µM
# [24] = second compound 0.316 µM, first compound 10 µM
# [25] = second compound 1 µM, first compound 0.0316 µM
# [26] = second compound 1 µM, first compound 0.1 µM
# [27] = second compound 1 µM, first compound 0.316 µM
# [28] = second compound 1 µM, first compound 1 µM
# [29] = second compound 1 µM, first compound 3.16 µM
# [30] = second compound 1 µM, first compound 10 µM
# [31] = second compound 3.16 µM, first compound 0.0316 µM
# [32] = second compound 3.16 µM, first compound 0.1 µM
# [33] = second compound 3.16 µM, first compound 0.316 µM
# [34] = second compound 3.16 µM, first compound 1 µM
# [35] = second compound 3.16 µM, first compound 3.16 µM
# [36] = second compound 3.16 µM, first compound 10 µM
# [37] = second compound 10 µM, first compound 0.0316 µM
# [38] = second compound 10 µM, first compound 0.1 µM
# [39] = second compound 10 µM, first compound 0.316 µM
# [40] = second compound 10 µM, first compound 1 µM
# [41] = second compound 10 µM, first compound 3.16 µM
# [42] = second compound 10 µM, first compound 10 µM
# 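Also: spheroids exposed to compounds for seven days before reading.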
# 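For viability, T/C in this document: percent viability relative to DMSO vehicle control taken as 100%.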
structure (smiles),measurement,setting,value
CC1COCCN1c1cc(-c2ccnn2C)c2ccnc(-c3ccn[nH]3)c2n1 (stereo not drawn) + Cc1cnc(CNC(=O)c2c(=O)c3ccc(N4CCCN(C)CC4)nc3n3c2sc2ccccc23)cn1,IC50,[1],> 10000 nM
same,IC50,[2],31.6 nM
same,IC50,[3],> 10000 nM
same,IC50,[4],> 10000 nM
same,IC50,[5],> 10000 nM
same,IC50,[6],> 10000 nM
same,"viability, T/C",[7],75.9%
same,"viability, T/C",[8],61.6%
same,"viability, T/C",[9],47.4%
same,"viability, T/C",[10],38%
same,"viability, T/C",[11],55%
same,"viability, T/C",[12],81.7%
same,"viability, T/C",[13],64.5%
same,"viability, T/C",[14],53.1%
same,"viability, T/C",[15],48.5%
same,"viability, T/C",[16],41.6%
same,"viability, T/C",[17],46.5%
same,"viability, T/C",[18],89.7%
same,"viability, T/C",[19],65.3%
same,"viability, T/C",[20],60.9%
same,"viability, T/C",[21],50.7%
same,"viability, T/C",[22],40.5%
same,"viability, T/C",[23],50.9%
same,"viability, T/C",[24],69.9%
same,"viability, T/C",[25],71.4%
same,"viability, T/C",[26],68.7%
same,"viability, T/C",[27],53.2%
same,"viability, T/C",[28],53.1%
same,"viability, T/C",[29],47.5%
same,"viability, T/C",[30],67.7%
same,"viability, T/C",[31],70.2%
same,"viability, T/C",[32],74.8%
same,"viability, T/C",[33],61%
same,"viability, T/C",[34],59%
same,"viability, T/C",[35],46.9%
same,"viability, T/C",[36],61.8%
same,"viability, T/C",[37],66.3%
same,"viability, T/C",[38],66.9%
same,"viability, T/C",[39],56%
same,"viability, T/C",[40],51.6%
same,"viability, T/C",[41],57.6%
same,"viability, T/C",[42],53.1%
CC(C)(O)C1CCC(Nc2ccc3ncc(-c4cccc(C(F)(F)F)c4)n3n2)CC1 (stereo not drawn),"viability, T/C",compound 0.0316 µM,94.3% and 83.6% and 92%
same,"viability, T/C",compound 0.1 µM,82.7% and 87.6% and 89.7%
same,"viability, T/C",compound 0.316 µM,73.7% and 75.8% and 103%
same,"viability, T/C",compound 1 µM,47.5% and 75.1% and 71%
same,"viability, T/C",compound 3.16 µM,35% and 31.5% and 45%
same,"viability, T/C",compound 10 µM,24.6% and 32.1% and 50.8%
same,IC50,curve of compound,1000 nM and 1950 nM and 2840 nM
CC1COCCN1c1cc(C2(O)CC3CCC(C2)O3)c2cnn(-c3ccn[nH]3)c2n1 (stereo not drawn),"viability, T/C",compound 0.0316 µM,79.2% and 81.7% and 79.9%
same,"viability, T/C",compound 0.1 µM,44.1% and 40% and 47.8%
same,"viability, T/C",compound 0.316 µM,42.2% and 37.5% and 56.3%
same,"viability, T/C",compound 1 µM,57.8% and 66.2% and 79.9%
same,"viability, T/C",compound 3.16 µM,89.3% and 91.2% and 80.4%
same,"viability, T/C",compound 10 µM,90.9% and 96% and 90.3%
same,IC50,curve of compound,> 10000 nM
C=CC(=O)N1CCN(c2nc(=O)n(-c3c(C)ccnc3C(C)C)c3nc(-c4c(O)cccc4F)c(F)cc23)C(C)C1 (stereo not drawn) + Cc1[nH]c2ccc(F)cc2c1-c1nc2c3cccnc3c3ncccc3c2[nH]1,IC50,[1],< 31.6 nM
same,IC50,[2],< 31.6 nM
same,IC50,[3],< 31.6 nM
same,IC50,[4],< 31.6 nM
same,IC50,[5],< 31.6 nM
same,IC50,[6],< 31.6 nM
same,"viability, T/C",[7],43.8%
same,"viability, T/C",[8],32.5%
same,"viability, T/C",[9],25.1%
same,"viability, T/C",[10],28.4%
same,"viability, T/C",[11],29.4%
same,"viability, T/C",[12],28.1%
same,"viability, T/C",[13],41.1%
same,"viability, T/C",[14],33.6%
same,"viability, T/C",[15],24.9%
same,"viability, T/C",[16],26.5%
same,"viability, T/C",[17],29.1%
same,"viability, T/C",[18],31.7%
same,"viability, T/C",[19],44.1%
same,"viability, T/C",[20],29.1%
same,"viability, T/C",[21],24.8%
same,"viability, T/C",[22],24.1%
same,"viability, T/C",[23],30.1%
same,"viability, T/C",[24],29.8%
same,"viability, T/C",[25],38.1%
same,"viability, T/C",[26],30.4%
same,"viability, T/C",[27],26.8%
same,"viability, T/C",[28],25.3%
same,"viability, T/C",[29],28%
same,"viability, T/C",[30],30.9%
same,"viability, T/C",[31],32.6%
same,"viability, T/C",[32],27.4%
same,"viability, T/C",[33],25.8%
same,"viability, T/C",[34],27.5%
same,"viability, T/C",[35],28.8%
same,"viability, T/C",[36],25.7%
same,"viability, T/C",[37],27.2%
same,"viability, T/C",[38],29.6%
same,"viability, T/C",[39],26.3%
same,"viability, T/C",[40],26.3%
same,"viability, T/C",[41],28.1%
same,"viability, T/C",[42],27.9%
CCc1c2c(nc3ccc(O)cc13)-c1cc3c(c(=O)n1C2)COC(=O)[C@]3(O)CC,"viability, T/C",compound 0.000999 µM,53.2% and 55.8% and 56.2%
same,"viability, T/C",compound 0.00316 µM,38.6% and 47.6% and 39.6%
same,"viability, T/C",compound 0.00999 µM,42.5% and 37.8% and 43.5%
same,"viability, T/C",compound 0.0316 µM,36.8% and 46.3% and 25.2%
same,"viability, T/C",compound 0.0999 µM,33.3% and 47.4% and 35.1%
same,"viability, T/C",compound 0.316 µM,34% and 43.8% and 29.1%
same,IC50,curve of compound,< 0.999 nM and 1.17 nM and 1.64 nM
Cc1[nH]c2ccccc2c1CCNCc1ccc(/C=C/C(=O)NO)cc1,"viability, T/C",compound 0.000999 µM,94.9% and 82.3% and 89.6%
same,"viability, T/C",compound 0.00316 µM,90.6% and 106% and 89.9%
same,"viability, T/C",compound 0.00999 µM,110% and 121% and 100%
same,"viability, T/C",compound 0.0316 µM,95.7% and 94.4% and 76.5%
same,"viability, T/C",compound 0.0999 µM,88.5% and 62.9% and 66.2%
same,"viability, T/C",compound 0.316 µM,86.2% and 55.7% and 46.1%
same,IC50,curve of compound,> 316 nM and 254 nM
CCCS(=O)(=O)Nc1ccc(F)c(C(=O)c2c[nH]c3ncc(-c4ccc(Cl)cc4)cc23)c1F,"viability, T/C",compound 0.0316 µM,96.7% and 101% and 93.4%
same,"viability, T/C",compound 0.1 µM,99.6% and 95.4% (2×)
same,"viability, T/C",compound 0.316 µM,60% and 140% and 121%
same,"viability, T/C",compound 1 µM,45.6% and 153% and 136%
same,"viability, T/C",compound 3.16 µM,32.6% and 184% and 167%
same,"viability, T/C",compound 10 µM,32.6% and 108% and 52.1%
